According to PMC5053573, “Structure-Based Design of Tetrahydroisoquinoline-7-carboxamides as Selective Discoidin Domain Receptor 1 (DDR1) Inhibitors” (Journal of Medicinal Chemistry, 2016):

Key:
Assay in all cases: biochemical
Details in all cases: read-out: %Ctrl @ 1000nM
IRAK1 = IRAK1 (Homo sapiens, UniProt P51617)
MERTK = MERTK (Homo sapiens, UniProt Q12866)
EPHA2 = EPHA2 (Homo sapiens, UniProt P29317)
RET = RET (Homo sapiens, UniProt P07949)
ROCK2 = ROCK2 (Homo sapiens, UniProt O75116)
MEK2 = target: T1, MEK2 (Homo sapiens, UniProt P36507)
T1 construct: gene MAP2K2

[1] = target: EGFR(L747-E749del, A750P) (Homo sapiens, UniProt P00533, A750P/DEL747-749)
ERK8 = target: T2, ERK8 (Homo sapiens, UniProt Q8TD08)
T2 construct: gene MAPK15

EPHB2 = EPHB2 (Homo sapiens, UniProt P29323)
BTK = BTK (Homo sapiens, UniProt Q06187)
TAOK3 = TAOK3 (Homo sapiens, UniProt Q9H2K8)
LYN = LYN (Homo sapiens, UniProt P07948)
CSNK1E = CSNK1E (Homo sapiens, UniProt P49674)
DCAMKL2 = target: T3, DCAMKL2 (Homo sapiens, UniProt Q8N568)
T3 construct: gene DCLK2

PHKG1 = PHKG1 (Homo sapiens, UniProt Q16816)
MRCKA = target: T4, MRCKA (Homo sapiens, UniProt Q5VT25)
T4 construct: gene CDC42BPA

MKNK2 = MKNK2 (Homo sapiens, UniProt Q9HBH9)
PAK3 = PAK3 (Homo sapiens, UniProt O75914)
CAMK1G = CAMK1G (Homo sapiens, UniProt Q96NX5)
AURKB = AURKB (Homo sapiens, UniProt Q96GD4)
HCK = HCK (Homo sapiens, UniProt P08631)
MET(M1250T) = MET(M1250T) (Homo sapiens, UniProt P08581, M1250T)
CSNK1G2 = CSNK1G2 (Homo sapiens, UniProt P78368)
[2] = target: T5, RSK4(Kin.Dom.1-N-terminal) (Homo sapiens, UniProt Q9UK32)
T5 construct: gene RPS6KA6

HIPK3 = HIPK3 (Homo sapiens, UniProt Q9H422)
CAMK2A = CAMK2A (Homo sapiens, UniProt Q9UQM7)
[3] = target: JAK3(JH1domain-catalytic) (Homo sapiens, UniProt P52333)
AKT2 = AKT2 (Homo sapiens, UniProt P31751)
MST4 = target: T6, MST4 (Homo sapiens, UniProt Q9P289)
T6 construct: gene STK26

LOK = target: T7, LOK (Homo sapiens, UniProt O94804)
T7 construct: gene STK10

PIK3CA(I800L) = PIK3CA(I800L) (Homo sapiens, UniProt P42336, I800L)
PAK2 = PAK2 (Homo sapiens, UniProt Q13177)
MAP3K15 = MAP3K15 (Homo sapiens, UniProt Q6ZN16)
LKB1 = target: T8, LKB1 (Homo sapiens, UniProt Q15831)
T8 construct: gene STK11

EPHA5 = EPHA5 (Homo sapiens, UniProt P54756)

Chain of BTK (Q06187 whole entry): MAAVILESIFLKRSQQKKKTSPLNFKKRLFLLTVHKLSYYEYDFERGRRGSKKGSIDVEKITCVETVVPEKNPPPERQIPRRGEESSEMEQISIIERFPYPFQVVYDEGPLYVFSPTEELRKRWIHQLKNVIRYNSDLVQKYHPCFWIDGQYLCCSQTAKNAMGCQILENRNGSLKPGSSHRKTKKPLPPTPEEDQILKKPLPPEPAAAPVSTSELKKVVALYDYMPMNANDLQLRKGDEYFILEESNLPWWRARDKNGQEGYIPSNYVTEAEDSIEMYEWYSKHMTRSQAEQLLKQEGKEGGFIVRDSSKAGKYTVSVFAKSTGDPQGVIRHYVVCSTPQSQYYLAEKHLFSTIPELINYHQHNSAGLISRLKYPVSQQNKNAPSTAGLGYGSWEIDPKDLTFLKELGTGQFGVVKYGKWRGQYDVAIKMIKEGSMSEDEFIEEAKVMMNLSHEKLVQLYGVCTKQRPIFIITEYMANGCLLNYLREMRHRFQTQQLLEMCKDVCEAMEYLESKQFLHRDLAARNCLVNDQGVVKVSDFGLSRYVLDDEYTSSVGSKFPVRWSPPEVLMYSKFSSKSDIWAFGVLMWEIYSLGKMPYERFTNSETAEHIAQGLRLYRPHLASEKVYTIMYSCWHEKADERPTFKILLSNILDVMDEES
T3 sequence (Q8N568 whole entry): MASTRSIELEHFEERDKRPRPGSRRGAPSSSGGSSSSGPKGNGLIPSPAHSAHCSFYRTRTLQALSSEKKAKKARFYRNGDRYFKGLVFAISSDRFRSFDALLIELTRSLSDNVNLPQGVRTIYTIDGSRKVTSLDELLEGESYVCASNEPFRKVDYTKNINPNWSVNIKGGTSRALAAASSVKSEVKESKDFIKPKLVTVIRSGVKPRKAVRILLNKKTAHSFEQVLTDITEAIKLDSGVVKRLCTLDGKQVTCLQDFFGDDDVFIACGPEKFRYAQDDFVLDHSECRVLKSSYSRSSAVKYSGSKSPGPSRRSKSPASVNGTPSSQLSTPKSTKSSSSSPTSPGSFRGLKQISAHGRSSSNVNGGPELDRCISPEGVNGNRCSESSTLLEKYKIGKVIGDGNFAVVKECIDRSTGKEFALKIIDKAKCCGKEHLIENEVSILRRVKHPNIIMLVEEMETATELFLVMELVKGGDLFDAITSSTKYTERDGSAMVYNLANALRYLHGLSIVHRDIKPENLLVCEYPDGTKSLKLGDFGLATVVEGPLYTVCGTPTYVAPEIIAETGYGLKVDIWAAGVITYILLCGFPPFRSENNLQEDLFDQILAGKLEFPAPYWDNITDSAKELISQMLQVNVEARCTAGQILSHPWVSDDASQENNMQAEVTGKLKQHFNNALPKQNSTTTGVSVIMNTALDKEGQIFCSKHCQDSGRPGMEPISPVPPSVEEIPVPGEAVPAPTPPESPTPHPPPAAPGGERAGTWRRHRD
Chain of CAMK2A (Q9UQM7 whole entry): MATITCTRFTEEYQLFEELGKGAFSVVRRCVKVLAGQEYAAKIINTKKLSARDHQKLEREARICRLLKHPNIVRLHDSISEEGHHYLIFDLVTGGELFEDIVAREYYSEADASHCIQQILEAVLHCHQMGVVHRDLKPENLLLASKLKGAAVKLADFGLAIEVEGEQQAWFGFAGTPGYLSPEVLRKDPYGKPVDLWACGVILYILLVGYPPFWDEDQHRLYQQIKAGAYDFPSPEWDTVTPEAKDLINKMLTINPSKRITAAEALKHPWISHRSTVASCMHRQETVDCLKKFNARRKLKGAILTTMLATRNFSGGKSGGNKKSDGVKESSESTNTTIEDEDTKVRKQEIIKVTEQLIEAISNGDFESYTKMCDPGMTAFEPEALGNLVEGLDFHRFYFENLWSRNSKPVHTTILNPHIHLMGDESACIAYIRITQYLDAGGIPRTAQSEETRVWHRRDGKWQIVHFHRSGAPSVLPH
Chain of EPHA2 (P29317 whole entry): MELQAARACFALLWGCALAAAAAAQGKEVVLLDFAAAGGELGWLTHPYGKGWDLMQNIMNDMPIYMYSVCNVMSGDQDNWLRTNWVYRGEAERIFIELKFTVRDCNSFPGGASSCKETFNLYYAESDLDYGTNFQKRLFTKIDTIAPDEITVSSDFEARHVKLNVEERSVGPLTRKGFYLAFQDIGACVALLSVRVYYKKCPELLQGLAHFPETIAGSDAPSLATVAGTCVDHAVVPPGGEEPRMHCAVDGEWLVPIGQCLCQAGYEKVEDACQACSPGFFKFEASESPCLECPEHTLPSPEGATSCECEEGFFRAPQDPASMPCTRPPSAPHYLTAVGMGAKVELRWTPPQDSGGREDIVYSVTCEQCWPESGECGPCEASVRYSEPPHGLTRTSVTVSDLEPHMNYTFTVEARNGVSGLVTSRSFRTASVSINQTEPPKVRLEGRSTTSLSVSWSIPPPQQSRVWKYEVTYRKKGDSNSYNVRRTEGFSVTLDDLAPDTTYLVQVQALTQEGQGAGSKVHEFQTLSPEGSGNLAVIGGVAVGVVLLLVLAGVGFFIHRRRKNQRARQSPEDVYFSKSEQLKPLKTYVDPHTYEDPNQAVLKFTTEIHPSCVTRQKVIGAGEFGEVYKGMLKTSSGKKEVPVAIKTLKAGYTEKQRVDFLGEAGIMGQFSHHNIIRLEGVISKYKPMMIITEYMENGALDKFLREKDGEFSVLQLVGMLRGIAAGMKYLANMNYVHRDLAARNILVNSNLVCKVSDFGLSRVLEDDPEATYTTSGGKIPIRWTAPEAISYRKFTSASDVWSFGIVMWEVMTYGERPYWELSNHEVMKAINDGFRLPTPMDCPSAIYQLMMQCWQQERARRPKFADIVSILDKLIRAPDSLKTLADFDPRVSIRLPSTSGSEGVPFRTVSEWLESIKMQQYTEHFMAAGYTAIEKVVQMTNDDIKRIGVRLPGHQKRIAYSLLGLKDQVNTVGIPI
Chain of EPHB2 (P29323 whole entry): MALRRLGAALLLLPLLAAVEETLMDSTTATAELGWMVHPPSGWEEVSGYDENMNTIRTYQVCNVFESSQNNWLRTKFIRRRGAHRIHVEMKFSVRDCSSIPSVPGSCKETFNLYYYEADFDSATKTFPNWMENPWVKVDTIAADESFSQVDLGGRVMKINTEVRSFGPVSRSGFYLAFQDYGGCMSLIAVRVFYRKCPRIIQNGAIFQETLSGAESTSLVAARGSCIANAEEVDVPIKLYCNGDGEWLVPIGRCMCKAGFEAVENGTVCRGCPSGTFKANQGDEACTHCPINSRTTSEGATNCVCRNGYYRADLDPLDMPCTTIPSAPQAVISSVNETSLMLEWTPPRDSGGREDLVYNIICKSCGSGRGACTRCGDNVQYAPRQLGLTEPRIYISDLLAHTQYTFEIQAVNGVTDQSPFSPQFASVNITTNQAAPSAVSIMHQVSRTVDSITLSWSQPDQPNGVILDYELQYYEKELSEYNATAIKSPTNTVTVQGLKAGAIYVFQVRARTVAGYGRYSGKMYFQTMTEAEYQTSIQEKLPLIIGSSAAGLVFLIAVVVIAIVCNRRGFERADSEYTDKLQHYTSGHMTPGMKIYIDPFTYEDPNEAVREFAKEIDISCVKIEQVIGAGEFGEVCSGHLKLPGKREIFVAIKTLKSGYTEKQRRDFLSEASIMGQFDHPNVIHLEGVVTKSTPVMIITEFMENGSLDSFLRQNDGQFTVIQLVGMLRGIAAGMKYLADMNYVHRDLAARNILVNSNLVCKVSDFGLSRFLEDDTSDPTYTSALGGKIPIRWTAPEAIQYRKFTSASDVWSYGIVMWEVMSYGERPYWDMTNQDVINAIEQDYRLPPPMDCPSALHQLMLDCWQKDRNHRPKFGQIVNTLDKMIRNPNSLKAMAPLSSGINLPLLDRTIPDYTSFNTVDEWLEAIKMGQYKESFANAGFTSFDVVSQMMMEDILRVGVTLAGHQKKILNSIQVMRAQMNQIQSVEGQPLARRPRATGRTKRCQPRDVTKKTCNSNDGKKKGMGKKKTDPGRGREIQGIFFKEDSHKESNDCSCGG
Chain of PAK2 (Q13177 whole entry): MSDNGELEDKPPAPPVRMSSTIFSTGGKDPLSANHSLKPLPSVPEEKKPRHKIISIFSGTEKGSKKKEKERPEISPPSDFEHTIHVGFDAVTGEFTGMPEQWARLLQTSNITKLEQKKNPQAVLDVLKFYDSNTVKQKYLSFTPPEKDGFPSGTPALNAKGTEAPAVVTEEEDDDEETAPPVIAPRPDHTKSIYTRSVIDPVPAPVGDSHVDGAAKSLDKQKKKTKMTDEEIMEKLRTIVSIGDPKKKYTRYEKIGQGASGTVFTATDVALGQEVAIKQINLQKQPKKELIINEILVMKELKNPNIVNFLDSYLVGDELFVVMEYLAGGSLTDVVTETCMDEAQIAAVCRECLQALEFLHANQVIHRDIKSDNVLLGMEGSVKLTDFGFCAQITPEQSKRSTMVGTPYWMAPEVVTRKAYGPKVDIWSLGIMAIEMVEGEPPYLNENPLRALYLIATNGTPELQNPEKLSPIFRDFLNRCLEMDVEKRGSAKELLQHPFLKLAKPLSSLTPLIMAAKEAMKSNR
Chain of CSNK1E (P49674 whole entry): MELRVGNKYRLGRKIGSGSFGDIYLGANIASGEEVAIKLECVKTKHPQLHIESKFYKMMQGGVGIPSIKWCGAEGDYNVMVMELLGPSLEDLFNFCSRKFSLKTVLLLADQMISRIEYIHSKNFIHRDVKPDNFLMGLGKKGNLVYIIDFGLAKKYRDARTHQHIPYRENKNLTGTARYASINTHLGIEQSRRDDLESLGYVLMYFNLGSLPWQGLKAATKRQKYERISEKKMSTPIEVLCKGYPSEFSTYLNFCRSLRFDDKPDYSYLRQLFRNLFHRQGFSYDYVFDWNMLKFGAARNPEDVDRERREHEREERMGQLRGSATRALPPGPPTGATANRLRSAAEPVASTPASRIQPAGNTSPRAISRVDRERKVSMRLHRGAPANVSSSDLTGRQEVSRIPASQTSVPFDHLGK

- remaining activity at 1 µM (IRAK1): 100%
- remaining activity at 1 µM (MERTK): 61%
- remaining activity at 1 µM (EPHA2): 65%
- remaining activity at 1 µM (RET): 94%
- remaining activity at 1 µM (ROCK2): 96%
- remaining activity at 1 µM (MEK2): 100%
- remaining activity at 1 µM [1]: 92%
- remaining activity at 1 µM (EPHB2): 85%
- remaining activity at 1 µM (BTK): 100%
- remaining activity at 1 µM (TAOK3): 100%
- remaining activity at 1 µM (LYN): 100%
- remaining activity at 1 µM (CSNK1E): 86%
- remaining activity at 1 µM (DCAMKL2): 100%
- remaining activity at 1 µM (PHKG1): 95%
- remaining activity at 1 µM (MRCKA): 93%
- remaining activity at 1 µM (MKNK2): 100%
- remaining activity at 1 µM (PAK3): 79%
- remaining activity at 1 µM (CAMK1G): 84%
- remaining activity at 1 µM (AURKB): 98%
- remaining activity at 1 µM (HCK): 86%
- remaining activity at 1 µM (MET(M1250T)): 84%
- remaining activity at 1 µM (CSNK1G2): 92%
- remaining activity at 1 µM [2]: 100%
- remaining activity at 1 µM (HIPK3): 86%
- remaining activity at 1 µM (CAMK2A): 97%
- remaining activity at 1 µM [3]: 100%
- remaining activity at 1 µM (AKT2): 100%
- remaining activity at 1 µM (MST4): 100%
- remaining activity at 1 µM (LOK): 72%
- remaining activity at 1 µM (PIK3CA(I800L)): 100%
- remaining activity at 1 µM (PAK2): 85%
- remaining activity at 1 µM (MAP3K15): 100%
- remaining activity at 1 µM (LKB1): 77%
- remaining activity at 1 µM (EPHA5): 74%
SMILES: Cc1cn(-c2cc(NC(=O)c3ccc4c(c3)CN(c3cncnc3)C[C@@H]4C)cc(C(F)(F)F)c2)cn1 [Compound 6j]
- remaining activity at 1 µM (ERK8): 84%
